Source: US6977262B2, “Dihydropyrazolopyridine compounds and pharmaceutical use thereof” (Mitsubishi Pharma Corporation, priority 2001, dated 2005)

## CCCCC1=C([N+](=O)[O-])C(c2cccc(Cl)c2Cl)c2c[nH]nc2N1 (centres unmarked) [Example 127, 6-Butyl-4-(2,3-dichlorophenyl)-4,7-dihydro-5-nitro-2H-pyrazolo[3,4-b]pyridine]
  melting point: 220 °C

## CCCC1=C(C#N)C(c2ccccc2Br)c2c[nH]nc2N1 (centres unmarked) [Example 128, 4-(2-Bromophenyl)-5-cyano-4,7-dihydro-6-propyl-2H-pyrazolo[3,4-b]pyridine]
  melting point: 237 °C

## CCCC1=C(C#N)C(c2ccccc2OC)c2c[nH]nc2N1 (centres unmarked) [Example 129, 5-Cyano-4,7-dihydro-4-(2-methoxyphenyl)-6-propyl-2H-pyrazolo[3,4-b]pyridine]
  melting point: 203 °C

## CCCC1=C(C#N)C(c2ccccc2SC)c2c[nH]nc2N1 (centres unmarked) [Example 130, 5-Cyano-4,7-dihydro-4-(2-methylthiophenyl)-6-propyl-2H-pyrazolo[3,4-b]pyridine]
  melting point: 216 °C

## CCCC1=C(C#N)C(c2ccccc2C)c2c[nH]nc2N1 (centres unmarked) [Example 131, 5-Cyano-4,7-dihydro-4-(2-methylphenyl)-6-propyl-2H-pyrazolo[3,4-b]pyridine]
  melting point: 230 °C

## CCCC1=C(C#N)C(c2ccccc2[N+](=O)[O-])c2c[nH]nc2N1 (centres unmarked) [Example 132, 5-Cyano-4,7-dihydro-4-(2-nitrophenyl)-6-propyl-2H-pyrazolo[3,4-b]pyridine]
  melting point: 216 °C

## CCCC1=C(C#N)C(c2ccccc2C#N)c2c[nH]nc2N1 (centres unmarked) [Example 133, 5-Cyano-4-(2-cyanophenyl)-4,7-dihydro-6-propyl-2H-pyrazolo[3,4-b]pyridine]
  melting point: 218 °C

## CCCC1=C(C#N)C(c2cccc(Cl)c2Cl)c2c[nH]nc2N1 (centres unmarked) [Example 134, 5-Cyano-4-(2,3-dichlorophenyl)-4,7-dihydro-6-propyl-2H-pyrazolo[3,4-b]pyridine]
  melting point: 242 °C

## CCCC1=C(C#N)C(c2cccc3ccccc23)c2c[nH]nc2N1 (centres unmarked) [Example 135, 5-Cyano-4,7-dihydro-4-(naphthalen-1-yl)-6-propyl-2H-pyrazolo[3,4-b]pyridine]
  melting point: 263 °C

## CCCC1=C(C#N)C(c2cccc3c2OCCC3)c2c[nH]nc2N1 (centres unmarked) [Example 136, 5-Cyano-4-(3,4-dihydro-2H-benzopyran-8-yl)-4,7-dihydro-6-propyl-2H-pyrazolo[3,4-b]pyridine]
  melting point: 230 °C

## CCCC1=C(C#N)C(c2cccc3nonc23)c2c[nH]nc2N1 (centres unmarked) [Example 137, 4-(2,1,3-Benzoxadiazol-4-yl)-5-cyano-4,7-dihydro-6-propyl-2H-pyrazolo[3,4-b]pyridine]
  melting point: 194 °C

## CCCC1=C(C#N)C(c2cccc3nsnc23)c2c[nH]nc2N1 (centres unmarked) [Example 138, 4-(2,1,3-Benzothiadiazol-4-yl)-5-cyano-4,7-dihydro-6-propyl-2H-pyrazolo[3,4-b]pyridine]
  melting point: 195 °C

## CCCC1=C(C#N)C(c2cccc3oc(C)nc23)c2c[nH]nc2N1 (centres unmarked) [Example 139, 5-Cyano-4,7-dihydro-4-(2-methylbenzoxazol-4-yl)-6-propyl-2H-pyrazolo[3,4-b]pyridine]
  melting point: 208 °C

## CCCC1=C(C#N)[C@H](c2cccc3nonc23)c2c[nH]nc2N1 [Example 140, R(−) 4-(2,1,3-Benzoxadiazol-4-yl)-5-cyano-4,7-dihydro-6-propyl-2H-pyrazolo[3,4-b]pyridine]
  melting point: 170 °C

## N#CC1=C(c2ccccc2)Nc2n[nH]cc2C1c1ccccc1Cl (centres unmarked) [Example 142, 4-(2-Chlorophenyl)-5-cyano-4,7-dihydro-6-phenyl-2H-pyrazolo[3,4-b]pyridine]
  melting point: 158 °C

## CSc1ccccc1C1C(C#N)=C(c2ccccc2)Nc2n[nH]cc21 (centres unmarked) [Example 143, 5-Cyano-4,7-dihydro-4-(2-methylthiophenyl)-6-phenyl-2H-pyrazolo[3,4-b]pyridine]
  melting point: 146 °C

## N#CC1=C(c2ccccc2)Nc2n[nH]cc2C1c1ccccc1C#N (centres unmarked) [Example 144, 5-Cyano-4-(2-cyanophenyl)-4,7-dihydro-6-phenyl-2H-pyrazolo[3,4-b]pyridine]
  melting point: 148 °C

## N#CC1=C(c2ccccc2)Nc2n[nH]cc2C1c1cccc(Cl)c1Cl (centres unmarked) [Example 145, 5-Cyano-4-(2,3-dichlorophenyl)-4,7-dihydro-6-phenyl-2H-pyrazolo[3,4-b]pyridine]
  melting point: 162 °C

## N#CC1=C(c2ccccc2)Nc2n[nH]cc2C1c1cccc2ccccc12 (centres unmarked) [Example 146, 5-Cyano-4,7-dihydro-4-(naphthalen-1-yl)-6-phenyl-2H-pyrazolo[3,4-b]pyridine]
  melting point: 174 °C

## N#CC1=C(c2ccccc2)Nc2n[nH]cc2C1c1cccc(C#N)c1Br (centres unmarked) [Example 147, 4-(2-Bromo-3-cyanophenyl)-5-cyano-4,7-dihydro-6-phenyl-2H-pyrazolo[3,4-b]pyridine]
  melting point: > 270 °C

## N#CC1=C(c2ccccc2)Nc2n[nH]cc2C1c1cccc2c1OCCC2 (centres unmarked) [Example 148, 5-Cyano-4-(3,4-dihydro-2H-benzopyran-8-yl)-4,7-dihydro-6-phenyl-2H-pyrazolo[3,4-b]pyridine]
  melting point: 255 °C

## N#CC1=C(c2ccccc2)Nc2n[nH]cc2C1c1cccc(F)c1F (centres unmarked) [Example 149, 5-Cyano-4-(2,3-difluorophenyl)-4,7-dihydro-6-phenyl-2H-pyrazolo[3,4-b]pyridine]
  melting point: 165 °C

## COc1ccccc1C1C(C#N)=C(c2ccccc2)Nc2n[nH]cc21 (centres unmarked) [Example 150, 5-Cyano-4,7-dihydro-4-(2-methoxyphenyl)-6-phenyl-2H-pyrazolo[3,4-b]pyridine]
  melting point: 206 °C

## COc1ccccc1C1=C(C#N)C(c2ccccc2OC)c2c[nH]nc2N1 (centres unmarked) [Example 151, 5-Cyano-4,7-dihydro-4,6-bis-(2-methoxyphenyl)-2H-pyrazolo[3,4-b]pyridine]
  melting point: 220 °C

## COc1cccc(C2=C(C#N)C(c3ccccc3OC)c3c[nH]nc3N2)c1 (centres unmarked) [Example 152, 5-Cyano-4,7-dihydro-4-(2-methoxyphenyl)-6-(3-methoxyphenyl)-2H-pyrazolo[3,4-b]pyridine]
  melting point: 192 °C

## COc1ccc(C2=C(C#N)C(c3ccccc3OC)c3c[nH]nc3N2)cc1 (centres unmarked) [Example 153, 5-Cyano-4,7-dihydro-4-(2-methoxyphenyl)-6-(4-methoxyphenyl)-2H-pyrazolo[3,4-b]pyridine]
  melting point: 149 °C

## N#CC1=C(c2ccccc2)Nc2n[nH]cc2C1c1ccccc1[N+](=O)[O-] (centres unmarked) [Example 154, 5-Cyano-4,7-dihydro-4-(2-nitrophenyl)-6-phenyl-2H-pyrazolo[3,4-b]pyridine]
  melting point: 221 °C

## COc1ccccc1C1=C(C#N)C(c2ccccc2[N+](=O)[O-])c2c[nH]nc2N1 (centres unmarked) [Example 155, 5-Cyano-4,7-dihydro-6-(2-methoxyphenyl)-4-(2-nitrophenyl)-2H-pyrazolo[3,4-b]pyridine]
  melting point: 207 °C

## COc1cccc(C2=C(C#N)C(c3ccccc3[N+](=O)[O-])c3c[nH]nc3N2)c1 (centres unmarked) [Example 156, 5-Cyano-4,7-dihydro-6-(3-methoxyphenyl)-4-(2-nitrophenyl)-2H-pyrazolo[3,4-b]pyridine]
  melting point: 220 °C

## COc1ccc(C2=C(C#N)C(c3ccccc3[N+](=O)[O-])c3c[nH]nc3N2)cc1 (centres unmarked) [Example 157, 5-Cyano-4,7-dihydro-6-(4-methoxyphenyl)-4-(2-nitrophenyl)-2H-pyrazolo[3,4-b]pyridine]
  melting point: 215 °C

## N#CC1=C(c2ccccc2)Nc2n[nH]cc2C1c1cccc2nonc12 (centres unmarked) [Example 158, 4-(2,1,3-Benzoxadiazol-4-yl)-5-cyano-4,7-dihydro-6-phenyl-2H-pyrazolo[3,4-b]pyridine]
  melting point: 231 °C

## COc1ccccc1C1=C(C#N)C(c2cccc3nonc23)c2c[nH]nc2N1 (centres unmarked) [Example 159, 4-(2,1,3-Benzoxadiazol-4-yl)-5-cyano-4,7-dihydro-6-(2-methoxyphenyl)-2H-pyrazolo[3,4-b]pyridine]
  melting point: 180 °C

## COc1cccc(C2=C(C#N)C(c3cccc4nonc34)c3c[nH]nc3N2)c1 (centres unmarked) [Example 160, 4-(2,1,3-Benzoxadiazol-4-yl)-5-cyano-4,7-dihydro-6-(3-methoxyphenyl)-2H-pyrazolo[3,4-b]pyridine]
  melting point: 198 °C

## COc1ccc(C2=C(C#N)C(c3cccc4nonc34)c3c[nH]nc3N2)cc1 (centres unmarked) [Example 161, 4-(2,1,3-Benzoxadiazol-4-yl)-5-cyano-4,7-dihydro-6-(4-methoxyphenyl)-2H-pyrazolo[3,4-b]pyridine]
  melting point: 244 °C

## N#CC1=C(c2ccccc2)Nc2n[nH]cc2C1c1cccc2nsnc12 (centres unmarked) [Example 162, 4-(2,1,3-Benzothiadiazol-4-yl)-5-cyano-4,7-dihydro-6-phenyl-2H-pyrazolo[3,4-b]pyridine]
  melting point: 258 °C

## COc1ccccc1C1=C(C#N)C(c2cccc3nsnc23)c2c[nH]nc2N1 (centres unmarked) [Example 163, 4-(2,1,3-Benzothiadiazol-4-yl)-5-cyano-4,7-dihydro-6-(2-methoxyphenyl)-2H-pyrazolo[3,4-b]pyridine]
  melting point: 231 °C

## COc1cccc(C2=C(C#N)C(c3cccc4nsnc34)c3c[nH]nc3N2)c1 (centres unmarked) [Example 164, 4-(2,1,3-Benzothiadiazol-4-yl)-5-cyano-4,7-dihydro-6-(3-methoxyphenyl)-2H-pyrazolo[3,4-b]pyridine]
  melting point: 220 °C

## COc1ccc(C2=C(C#N)C(c3cccc4nsnc34)c3c[nH]nc3N2)cc1 (centres unmarked) [Example 165, 4-(2,1,3-Benzothiadiazol-4-yl)-5-cyano-4,7-dihydro-6-(4-methoxyphenyl)-2H-pyrazolo[3,4-b]pyridine]
  melting point: 238 °C

## N#CC1=C(c2ccncc2)Nc2n[nH]cc2C1c1cccc2nonc12 (centres unmarked) [Example 166, 4-(2,1,3-Benzoxadiazol-4-yl)-5-cyano-4,7-dihydro-6-(pyridin-4-yl)-2H-pyrazolo[3,4-b]pyridine]
  melting point: 236 °C

## N#CC1=C(c2cccc3ccccc23)Nc2n[nH]cc2C1c1cccc2nonc12 (centres unmarked) [Example 169, 4-(2,1,3-Benzoxadiazol-4-yl)-5-cyano-4,7-dihydro-6-(naphthalen-1-yl)-2H-pyrazolo[3,4-b]pyridine]
  melting point: 213 °C

## N#CC1=C(c2ccco2)Nc2n[nH]cc2C1c1cccc2nonc12 (centres unmarked) [Example 170, 4-(2,1,3-Benzoxadiazol-4-yl)-5-cyano-6-(furan-2-yl)-4,7-dihydro-2H-pyrazolo[3,4-b]pyridine]
  melting point: 241 °C
